According to patent EP1004870A1, “Liquid barriers for assays” (Aurora Biosciences Corporation, priority 1998, dated 2000):
“And” between values parts separate entries of the source, which are not always exact repeats. Identical values can stand only once. Like-named read-outs stand apart in the source and are kept apart here.

Molecular target: T1, M1 receptor (Homo sapiens, UniProt P11229)
T1 sequence (P11229 1-460): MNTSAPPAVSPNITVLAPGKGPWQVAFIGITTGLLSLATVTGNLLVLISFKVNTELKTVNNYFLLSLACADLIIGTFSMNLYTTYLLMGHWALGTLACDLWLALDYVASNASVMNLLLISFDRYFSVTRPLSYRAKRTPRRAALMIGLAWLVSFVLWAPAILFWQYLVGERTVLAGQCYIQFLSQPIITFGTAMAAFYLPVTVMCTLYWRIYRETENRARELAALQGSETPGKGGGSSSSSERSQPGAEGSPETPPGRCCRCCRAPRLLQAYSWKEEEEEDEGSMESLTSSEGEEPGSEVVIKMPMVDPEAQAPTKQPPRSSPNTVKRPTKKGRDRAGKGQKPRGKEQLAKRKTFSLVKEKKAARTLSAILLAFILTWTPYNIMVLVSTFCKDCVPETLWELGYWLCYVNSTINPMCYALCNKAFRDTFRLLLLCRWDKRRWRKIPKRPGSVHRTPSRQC
Test: Antagonist assay: beta-lactamase expression in carbachol-stimulated Jurkat C2 cells (CCF2/AM fluorescence read-out), mechanical vs liquid barrier

[1] = Liquid barrier (silicone oil, Dow Corning Silicone 200 Fluid 5.0 cs), cells stimulated with carbachol, 96-well plate
[2] = Mechanical barrier (polystyrene lid), cells stimulated with carbachol, 96-well plate

Compound	Percent inhibition of beta- lactamase expression in C2 cells in response to the presence of the indicated chemical [1] [%]	Percent inhibition of beta- lactamase expression in C2 cells in response to the presence of the indicated chemical [2] [%]	Percent inhibition of beta- lactamase expression in C2 cells in response to the presence of the indicated chemical
C[N+]12CCC(CC1)C(OC(=O)C(O)(c1ccccc1)c1ccccc1)C2 (stereo not drawn) [Clidinium]	–	–	82% and 91%
CCN(CC)C(C)CN1c2ccccc2Sc2ccccc21 (stereo not drawn) [Ethopropazine]	43	88	–
Isopropamine	78	91	–

Continued, in another order:

Percent inhibition of beta- lactamase expression in C2 cells in response to the presence of the indicated chemical [1] [%]	Percent inhibition of beta- lactamase expression in C2 cells in response to the presence of the indicated chemical [2] [%]	Compound	Percent inhibition of beta- lactamase expression in C2 cells in response to the presence of the indicated chemical
90	91	C[N+]1(C)CCCC(OC(=O)C(O)(c2ccccc2)c2ccccc2)C1 (stereo not drawn) [Mepenzolate]	–
95	95	CC(C)[N+](C)(CCOC(=O)C1c2ccccc2Oc2ccccc21)C(C)C [Propantheline]	–
